Values quoted from earlier work, collected in patent publication US4925831A, “Aminoalkyl naphthalenediols as host resistance enhancers against viral infection” (priority 1987, dated 1990).
“Also recorded” adds a separate entry of the source. Like-named read-outs stand apart in the source and are kept apart here.

What was measured:
[1] = in vivo
[2] = tested on: HIV reverse transcriptase; details: result in words
[3] = tested on: AIDS or ARC patients; details: result in words
[4] = tested on: HIV; details: result in words
[5] = not given; remark: listed apart in the source

For lentinan, the toxic side effects [1] is listed as “undesirable toxic side effects, such as granulomatous inflammation”.

For O=C(O)P(=O)(O)O [Foscarnet, trisodium phosphonoformate], the “inhibition of HIV reverse transcriptase” value [2] is given as “Inhibits HIV reverse transcriptase activity in vitro at levels pharmacologically acceptable in vivo” and the “adverse / toxic effects, tolerability” value (human, in vivo) is given as “serious side effects”.

For NC(=O)c1ncn([C@@H]2O[C@H](CO)[C@@H](O)[C@H]2O)n1 [Ribavirin, 1β-D-ribofuranosyl-1,2,4-triazole-3-carboxamide], the clinical efficacy [3] is given as “inhibited viral replication and improved immune function in AIDS patients”.

For “ammonium 21-tungsto-9-antimoniate [HPA-23]”, the “effect on HIV growth / infectivity” value [4] is given as “some tendency to check the growth of HIV” and the clinical efficacy [3] is given as “no therapeutic benefit has been documented in AIDS patients”.

In the case of Cc1cn([C@H]2C[C@H](N=[N+]=[N-])[C@@H](CO)O2)c(=O)[nH]c1=O [Azidothymidine, 3'-azido-3'-deoxythymidine], the “half-life in the body” value ([5]; in vivo) is listed as “relatively short half-life in the body”, the oral absorption ([5]; oral) is listed as “Well absorbed orally” and the clinical efficacy [3] is listed as “promise in prolonging lives of patients with AIDS or AIDS-related complex (ARC)”. The “adverse / toxic effects, tolerability” value (clinical, result in words) was “some toxicity, with anemia and headaches” and the “adverse / toxic effects, tolerability” value (clinical, result in words, listed as AZT) was “virtually no toxic effects”.

In the case of CC(=O)Nc1ccc(C(=O)O)cc1.CC(=O)Nc1ccc(C(=O)O)cc1.CC(=O)Nc1ccc(C(=O)O)cc1.CC(O)CN(C)C.CC(O)CN(C)C.CC(O)CN(C)C.O=c1[nH]cnc2c1ncn2[C@@H]1O[C@H](CO)[C@@H](O)[C@H]1O [Inosine pranobex], the clinical efficacy [3] is given as “improve immune function in ARC patients”.

In the case of CC(C)(N1CC1C#N)N1CC1C(N)=O (stereo not shown) [Azimexon], the clinical efficacy [3] is listed as “improvements in symptoms and immune function in patients with ARC but not AIDS” and the “adverse / toxic effects, tolerability” value (clinical, result in words) is listed as “only toxic effect was mild hemolysis”.

For α-Interferon, the “effect on HIV growth / infectivity” value [4] is given as “Checks the growth of HIV in vitro” and the clinical efficacy [3] is given as “induced tumor regression in some AIDS-related Kaposi's sarcoma cases”.

For CO[C@H]1/C=C/O[C@@]2(C)Oc3c(C)c(O)c4c(c3C2=O)C2=NC3(CCN(CC(C)C)CC3)NC2=C(NC(=O)/C(C)=C\C=C\[C@H](C)[C@H](O)[C@@H](C)[C@@H](O)[C@@H](C)[C@H](OC(C)=O)[C@@H]1C)C4=O [Ansamycin, rifabutin], the clinical efficacy [3] is given as “some efficacy in treating AIDS patients with an opportunistic infection caused by the bacterium Mycobacterium aviumintracellulare”.

In the case of CC(C)(S)[C@@H](N)C(=O)O [D-Penicillamine, 3-mercapto-D-valine], the clinical efficacy [3] is listed as “Inhibits HIV reproduction in humans; also recorded: suppressed the virus” and the “adverse / toxic effects, tolerability” value (human, in vivo) is listed as “temporarily depressed T cell levels in 13 AIDS patients”.

In the case of Cc1ccc(C(=O)Nc2ccc(S(=O)(=O)O)c3cc(S(=O)(=O)O)cc(S(=O)(=O)O)c23)cc1NC(=O)c1cccc(NC(=O)Nc2cccc(C(=O)Nc3cc(C(=O)Nc4ccc(S(=O)(=O)O)c5cc(S(=O)(=O)O)cc(S(=O)(=O)O)c45)ccc3C)c2)c1 [Suramin], the clinical efficacy [3] is given as “little or no evidence of clinical improvement or immunologic recovery” and the “inhibition of HIV reverse transcriptase” value [2] is given as “Potent inhibitor of HIV reverse transcriptase”.

For krestin, the toxic side effects [1] is listed as “undesirable toxic side effects, such as granulomatous inflammation”.
